Measured values reported in publication PMC10590756, “Glutarate regulates T cell metabolism and anti-tumour immunity” (Nature Metabolism, 2023).

Experiments:
human CD8^+ T cells [1] = assay: Memory populations (CCR7/CD45RO) of human CD8^+ T cells by flow cytometry; type: cell-based
Description: This contrasts with octyl ester S-2HG, which decreases cell growth from 400 µM (Extended Data Fig. 1c).
Human PBMCs were obtained from NHSBT: Addenbrooke’s Hospital, Cambridge, UK or the Karolinska Hospital Service, Sweden. Ethical approval was obtained from the East of England-Cambridge Central Research Ethics Committee (06/Q0108/281) and consent was obtained from all participants. PBMCs from healthy donors were isolated from blood using discontinuous plasma Percoll gradients. Naive CD8^+ T cells were isolated using the Naive CD8^+ T Cell Isolation Kit (catalogue no. 130-093-244, Miltenyi Biotec), in accordance with the manufacturer’s instructions. Total CD8^+ T cells were purified by either positive or negative magnetic bead sorting (catalogue nos. 130-045-201 and 130-096-495, Miltenyi Biotec). All human CD8^+ T cells were activated with anti-human CD3/CD28 Dynabeads (catalogue no. 11131D, Thermo Fisher Scientific) at a 1:1 cell:bead ratio and cultured in complete RPMI 1640 supplemented with 10% FCS, 100 U ml^−1 penicillin, 100 µg ml^−1 streptomycin and 30 U ml^−1 interleukin-2 (IL-2) (catalogue no. 11147528001, Sigma-Aldrich).
(§1) Single-cell suspensions were stained with LIVE/DEAD Fixable Near-IR Dead Cell Stain Kit (catalogue no. 10119, Thermo Fisher Scientific) followed by surface and intracellular staining with fluorochrome-labelled antibodies (Supplementary Tables 1 and 2). Staining of cytoplasmic and nuclear antigens was performed using the Cytofix/Cytoperm Fixation/Permeabilization Kit (catalogue no. 554714, BD Biosciences) and the Transcription Factor Buffer Set (catalogue no. 562725, BD Biosciences), respectively. For the proliferation assays, cells were loaded with CellTrace Violet (catalogue no. C34557, Thermo Fisher Scientific) according to the manufacturer’s instructions. Samples were acquired on an Aurora (Cytek Biosciences).

human TET2 enzyme = target: T1, human TET2 enzyme (Homo sapiens, UniProt Q6N021); assay: Cell-free TET2 enzymatic activity assay; type: biochemical
T1 construct: purchased BPS Bioscience 50162
Description: A total of 2 nM of the human TET2 enzyme (catalogue no. 50162, BPS Bioscience) or 4 nM of the human KDM4C enzyme (catalogue no. 50105, BPS Bioscience) was incubated with the substrate of 30 nM single-stranded DNA (ssBiotin 26 nt Me-C Oligo, Genscript), in the presence of αKG (catalogue no. K3752, Sigma-Aldrich), 10 µM ammonium iron(II) sulphate hexahydrate (catalogue no. F3754, Sigma-Aldrich) in assay buffer (50 mM HEPES (catalogue no. 15630-080, Gibco), pH 7.0, 100 mM NaCl, 0.01% Pluronic F-127, 1 mM TCEP (S16054, Shanghai Yuanye Bio-Technology Company), 2 mM ascorbic acid (A5960, Sigma-Aldrich), 0.2 mg/ml BSA (catalogue no. B2064, Sigma-Aldrich) and 1,000 U ml^−1 catalase (catalogue no. C40, Sigma-Aldrich)). The concentration of αKG used for the TET2 standard and competitive assays was 115 µM and 4,500 µM, respectively. The concentration of αKG used for the KDM4C standard and competitive assays was 10 µM and 50 µM, respectively. The concentration of αKG used in the standard assay was calculated for each enzyme batch and is the concentration of substrate at which half the maximum reaction rate is achieved. DEG and glutaric acid were used in threefold serial dilution and the maximum concentration used was 5 mM. The pre-incubation time of the inhibitors with the TET2 mixture was 30 min at room temperature. The reaction step was at room temperature for 90 min. The product was detected by using a 5 nM anti-5hmC antibody (catalogue no. 39999, Active Motif), 5 nM Eu-Protein A (catalogue no. 61PRAKLB, Cisbio), 6.25 nM streptavidin-Alexa Fluor 647 (catalogue no. S21374, Thermo Fisher Scientific) and 10 mM EDTA (catalogue no. 0369, Sigma-Aldrich). For the standard curve, the ssBiotin 26 nt HydMe-C Oligo was used. The assays were performed in technical duplicates in a 384-well plate. Inhibitor analysis was performed within the linear range of catalysis.
The percentage of inhibition was calculated with the following formula: inhibition% = (1−(signal value per well−average low control)/(average high control−average low control)) × 100. Data were fitted using Prism (GraphPad Software) with a four-parameter equation via ‘log(inhibitor) versus response−variable slope’ model.

human KDM4C enzyme = target: T2, human KDM4C enzyme (Homo sapiens, UniProt Q9H3R0); assay: Cell-free KDM4C enzymatic activity assay; type: biochemical
T2 construct: purchased BPS Bioscience 50105
T2 sequence (Q9H3R0 2-372 limits assumed): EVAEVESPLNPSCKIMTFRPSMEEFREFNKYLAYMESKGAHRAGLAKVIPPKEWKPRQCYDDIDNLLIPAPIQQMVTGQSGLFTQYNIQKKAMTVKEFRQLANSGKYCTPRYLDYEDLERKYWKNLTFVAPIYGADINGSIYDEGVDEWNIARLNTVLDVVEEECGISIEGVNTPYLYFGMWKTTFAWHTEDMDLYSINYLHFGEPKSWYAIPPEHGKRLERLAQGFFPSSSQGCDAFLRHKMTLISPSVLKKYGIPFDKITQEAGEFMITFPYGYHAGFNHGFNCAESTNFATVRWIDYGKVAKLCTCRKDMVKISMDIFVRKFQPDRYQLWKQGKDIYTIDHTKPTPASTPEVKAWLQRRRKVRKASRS
Description: A total of 2 nM of the human TET2 enzyme (catalogue no. 50162, BPS Bioscience) or 4 nM of the human KDM4C enzyme (catalogue no. 50105, BPS Bioscience) was incubated with the substrate of 30 nM single-stranded DNA (ssBiotin 26 nt Me-C Oligo, Genscript), in the presence of αKG (catalogue no. K3752, Sigma-Aldrich), 10 µM ammonium iron(II) sulphate hexahydrate (catalogue no. F3754, Sigma-Aldrich) in assay buffer (50 mM HEPES (catalogue no. 15630-080, Gibco), pH 7.0, 100 mM NaCl, 0.01% Pluronic F-127, 1 mM TCEP (S16054, Shanghai Yuanye Bio-Technology Company), 2 mM ascorbic acid (A5960, Sigma-Aldrich), 0.2 mg/ml BSA (catalogue no. B2064, Sigma-Aldrich) and 1,000 U ml^−1 catalase (catalogue no. C40, Sigma-Aldrich)). […] The concentration of αKG used in the standard assay was calculated for each enzyme batch and is the concentration of substrate at which half the maximum reaction rate is achieved. […] The product was detected by using a 5 nM anti-5hmC antibody (catalogue no. 39999, Active Motif), 5 nM Eu-Protein A (catalogue no. 61PRAKLB, Cisbio), 6.25 nM streptavidin-Alexa Fluor 647 (catalogue no. S21374, Thermo Fisher Scientific) and 10 mM EDTA (catalogue no. 0369, Sigma-Aldrich). […]
The percentage of inhibition was calculated with the following formula: inhibition% = (1−(signal value per well−average low control)/(average high control−average low control)) × 100. […]

[2] = tested on: HIF-P4H activity against pFLAG-Gal4-mHIF-1α NTAD; assay: HIF-PH activity luciferase reporter assay in MEFs; type: cell-based, mouse
Source text: To test HIF-P4H inhibition via DEG treatment in a cellular system, we used a luciferase reporter assay driven by a Gal4 response element (GRE-luc), pFLAG-Gal4-mHIF-1α N-terminal transcription activation domain (NTAD)[35]. The NTAD contains proline residues that are hydroxylated by HIF-P4H enzymes to target the protein for degradation; thus, luciferase expression in this assay is controlled by HIF-P4H hydroxylation activity against the pFLAG-Gal4-mHIF-1α NTAD.
MEFs were transiently transfected using Lipofectamine 2000 (Thermo Fisher Scientific) with 20 ng per expression plasmid for 2 × 10^4 cells per well in a 96-well plate. Cells were treated with transfection mixes for 8 h.
Generation of plasmids for the HIF-PH activity luciferase reporter assay has been described previously: luciferase reporter driven by GRE-luc pFLAG-Gal4-mHIF-1α NTAD[35]. […] After 8 h of transient transfection with expression plasmids, cells were treated with experimental medium containing metabolites and drugs as described in the figure legends for 16 h; then, the luciferase signal assessed using the Steady-Glo Luciferase Assay System (Promega Corporation) detected using a luminometer. […]

human CD8^+ T cells [3] = assay: Markers of T cell differentiation and exhaustion by flow cytometry; type: cell-based
Description: as §1

[4] = 10 days of DEG treatment, 500 µM

Compound | TCM population (CCR7^hiCD45RO^hi) (human CD8^+ T cells [1]; 7 days of culture with DEG) | effector memory T (TEM) cell population (CCR7^loCD45RO^hi) (human CD8^+ T cells [1]; 7 days of culture with DEG) | TET2 inhibition (human TET2 enzyme; cell-free, increasing concentrations, maximum 5 mM) | KDM4C inhibition (human KDM4C enzyme; cell-free, DEG alone) | cellular HIF-P4H activity ([2]; MEFs, 16 h, increasing concentrations of DEG) | expression of LAG3 (human CD8^+ T cells [3]; [4]) | expression of TIM3 (human CD8^+ T cells [3]; [4]) | expression of TOX (human CD8^+ T cells [3]; [4]) | expression of granzyme B (GZMB) (human CD8^+ T cells [3]; DEG 500 µM, 7-10 days) | TCM populations (human CD8^+ T cells [1]; glutarate alone (not esterified), higher doses, 10 days of culture) | IC50 (human TET2 enzyme; IC50 TET2 + 40× αKG, αKG 4,500 µM (competitive assay)) [mM] | IC50 (human TET2 enzyme; IC50 recombinant TET2, cell-free) [mM] | mode of TET2 inhibition (human TET2 enzyme; reduced inhibition with increased levels of αKG) | IC50 (human KDM4C enzyme) [mM] | mode of HIF-P4H-1 inhibition ([2]; MEFs treated 16 h with DEG and dimethyl αKG)
CCOC(=O)CCCC(=O)OCC [DEG, Diethyl glutarate] | increased the TCM population | decreased | did not inhibit | not capable of inhibiting | can inhibit | downregulated | downregulated | downregulated | increases |  |  |  |  |  | 
O=C(O)CCCC(=O)O [glutarate, glutaric acid] |  |  |  |  |  |  |  |  |  | capable of increasing TCM populations | ~5 | 1.5 | competitive with αKG | 1 | αKG-competitive
